From patent publication US9616075B2, “Method of treating and preventing brain impairment using Na+-K+-2Cl-cotransporter isoform 1 inhibitors” (University of Rochester, priority 2012, dated 2017)
Read-outs that look alike come from different tables or passages of the source.

Legend:
[1] = tested on: cortical inhibitory networks; experiment: Paired-pulse whisker stimulation (paired-pulse ratio, cortical inhibitory function) in awake mice; type: in vivo, mouse; conditions: for Paired-pulse ratio (PPR): awake mice
Method: (§1) Recordings were analyzed offline using pClamp 10.2.
Next, it was investigated how cortical ammonia toxicity leads to neurological dysfunction and seizures. […] Neurobiol. […] The whisker stimulation paradigm elicits two successive field excitatory post-synaptic potentials (fEPSP), where the second fEPSP has lower amplitude due to activation of cortical inhibitory networks (quantified by a paired-pulse ratio (PPR)<1).

[2] = tested on: pyramidal neurons; experiment: Whole-cell voltage clamp with ramp voltage and GABA application in acute cortical slices (EGABA); type: cell-based, mouse
From the text: (§3) Electrophysiological Recordings—In vivo recordings were obtained from layer II somatosensory cortex. In situ recordings were obtained from layer II in coronal cortical slices prepared from P21-30 mice. ISMs of K^+ and NH4^+ were pulled from double-barreled pipette glass (PB150-6, WPI) with a tip of 1-3 μm. The pipettes were silanized (coated) with dimethylsilane I (Fluka, Sigma) and filled with either K^+ ionophore I cocktail B (Fluka, selectivity coefficient −1.8 log(K^+/NH4^+)) or NH4+ ionophore I cocktail B (Fluka, −0.9 log(NH4^+/K^+)). […] Ion-sensitive microelectrode (ISM) signals were amplified (FD223a by WPI), externally filtered and digitized as above, and reference field potential traces were subtracted. […] Recordings were analyzed offline using pClamp 10.2.
(§4) In Situ Electrophysiology—Coronal cortical slices were prepared from P21-30 mice, as described previously. […] All experiments were performed at 32-35° C. […] Whole-cell patch-clamp recordings were done using electrodes with 3-5 M106 resistance, and an intracellular solution containing 135 mM K-methylsulfate, 10 mM KCl, 10 mM hepes, 5 mM NaCl, 2.5 mM Mg-ATP, 0.3 mM Na-GTP (pH 7.3), containing Alexa Fluor® 350 (Invitrogen). Signals were low-pass filtered at 2 kHz and digitized at 10 kHz using Axopatch MultiClamp 700A and Digidata 1320A (Axon Instruments).

[3] = tested on: astrocytes; conditions: awake Otc^spf-ash mice, ammonia load
Method: Two-Photon Laser Scanning Microscopy (2PLSM)—A Mai Tai laser (SpectraPhysics) attached to a confocal scanning system (Fluoview 300, Olympus) and an upright microscope (IX51W) was used. Briefly, volume changes and calcium activity were imaged in cortex 100 μm below the pial surface, as described previously, using a 60× (1.1 NA) and a 20× (0.95 NA) lens, respectively. For in vivo volumetry xyzt image series were collected (z-step 1.5 μm, every 5 minutes) with acquisition time<20 seconds and laser power<40 mW. For in vivo calcium imaging, dual channel (rhod-2 and eGFP) frames were collected at 0.2 or 2 Hz. A low sampling rate and <20 mW laser were used to avoid photo damage. […] Therefore, each animal was tested for optimal loading by performing whisker stimulation, to verify a physiological calcium response. Wang et al., “Astrocytic Ca^2+ Signalling Evoked by Sensory Stimulation In Vivo,” Nat. Neurosci. 9:816-823 (2006), which is hereby incorporated by reference in its entirety. A calcium transient was defined as an event where the relative ratio between the rhod-2 and eGFP signal intensities (ΔF/F0) was >2 standard deviations […] from baseline. Beginning and end were defined as ΔF/F0>0.5 π and <0.5 π respectively. Amplitude was taken as the peak ΔF/F0 in this interval. […] Volume and calcium recordings were analyzed using previously described custom-made software (MatLab Inc.).

[4] = target: NKCC1 (Mus musculus, UniProt P55012); conditions: wild-type Slc12a2^+/+
Method: as §1
(§2) Because EGABA is heavily dependent on chloride transporters, the diuretic bumetanide was next tested, a highly specific NKCC1 inhibitor used in clinical practice to treat heart failure. Hannaert et al., “Rat NKCC2/NKCC1 Cotransporter Selectivity For Loop Diuretic Drugs,” Naunyn Schmiedebergs Arch. Pharmacol. 365:193-199 (2002); Dzhala et al., “NKCC1 Transporter Facilitates Seizures in the Developing Brain,” Nat. […] To ensure the molecular specificity of bumetanide, gramicidin-perforated patch recordings were also performed in conditional NKCC1 knock-out (Slc12a2^−/−) and wild-type littermates (Slc12a2′^+/+).

[5] = tested on: NKCC1; conditions: NKCC1 knock-out Slc12a2^−/−
Method: as §1, §2

[6] = tested on: awake mice; experiment: Myoclonic event (ME) frequency on EEG in awake mice; type: in vivo, mouse
From the text: Electrophysiological Recordings—In vivo recordings were obtained from layer II somatosensory cortex. In situ recordings were obtained from layer II in coronal cortical slices prepared from P21-30 mice. ISMs of K^+ and NH4^+ were pulled from double-barreled pipette glass (PB150-6, WPI) with a tip of 1-3 μm. The pipettes were silanized (coated) with dimethylsilane I (Fluka, Sigma) and filled with either K^+ ionophore I cocktail B (Fluka, selectivity coefficient −1.8 log(K^+/NH4^+)) or NH4+ ionophore I cocktail B (Fluka, −0.9 log(NH4^+/K^+)). […] Electroencephalogram (EEG) signals were externally filtered at 6 Hz (Filter Butterworth Model by Encore, Axopatch 200B by Axon Instruments), band pass filtered at 1-100 Hz and digitized (Digidata 1440A by Axon Instruments). Ion-sensitive microelectrode (ISM) signals were amplified (FD223a by WPI), externally filtered and digitized as above, and reference field potential traces were subtracted. In selected experiments, wireless electromyogram (EMG) and electroencephalogram (EEG) electrodes were implanted (DSI Physiotel®), and an extracellular microelectrode was placed in the thalamus (ventrobasal complex). Recordings were analyzed offline using pClamp 10.2. Myoclonic events (ME) were defined on the EEG as single or multiple 3-9 Hz polyspike and wave discharges (SWD) of 0.2-2 second duration associated with myoclonic jerks determined by video recording, EMG or direct observation.

[7] = tested on: Otc^spf-ash mice; experiment: Automated video analysis of spontaneous mouse movement; type: in vivo; conditions: Otc^spf-ash mice after systemic NH4Cl load 7.5 mmol kg^−1; bumetanide 30 mg kg^−1 i.p.
Method: Otc^spf-ash mice were crossed with Glt-1-eGFP mice for imaging experiments. C57BL/6J mouse and Wistar rat pups were obtained from Jackson Laboratories. To analyze cognitive abilities in OTC mice, two commercial conditioning chambers (H10-11M-TC, Coulbourn Instruments) were adapted for contextual fear conditioning. Over the course of 4 days, mice were trained via a tone/shock protocol and trained to fear contextual and auditory cues. […] Automated movement analysis was performed using AnyMazeTM software analysis of CCD-camera recordings in a standard mouse cage.

[8] = 1H-NMR brain amino acid concentrations; type: in vivo, mouse; conditions: 30 minutes after administration, mean±SEM
Method: ^1H-NMR Spectroscopy—Mice were anesthetized using 1.5% isoflurane and decapitated. Forebrains (whole brain minus cerebellum/brainstem) were quickly extracted, frozen in liquid nitrogen, and homogenized in 7.5 mL 12% PCA at 0° C. using a micro-sonicator. The homogenate was centrifuged at 25,000 G for 15 minutes, and the supernatants were neutralized to pH 7.0 with KOH over an ice bath. A further 15 minute centrifugation (25,000 G) separated the resultant KClO4, and the supernatant was lyophilized before being reconstituted with 0.65 ml D2O. ^1H-NMR spectra were acquired using a 600 mHz Varian Unity NOVA spectrometer equipped with a triple-axis gradient HCN probe (standard room temperature). Signals were acquired following a 90° pulse with a spectral width of 7200 Hz and 32K data points. The time between pulses was 15 seconds and 64 signals were averaged for each spectrum. The sample temperature was 25° C. Integrals of the relevant peaks were converted to μmol/gram wet-weight and normalized NAA (methyl) to increase inter-sample consistency.

[9] = tested on: cortical slices; conditions: 7 mM ammonia in perfusate
From the text: as §3, §4

[10] = Otc^spf-ash mice after 7.5 mmol kg^−1 i.p. ammonia load (baseline 0.32±0.07)
Method: Biochemical and Hemodynamic Analysis—Plasma ammonia analysis was performed on blood samples collected using 50 μL heparinized tubes from the femoral artery. A L-glutamate dehydrogenase based kit (Sigma) was used for the quantification of ammonia in plasma.

[11] = tested on: Na^+—K^+-ATPase (NKA)
Method: Cell Culture Assays—Cultured neocortical astrocytes were prepared from P1-2 mouse and rat pups as previously described. Wang et al., “Astrocytes Modulate Neural Network Activity by Ca(2)(+)-Dependent Uptake of Extracellular K(+),” Science Signaling 5:ra26 (2012); Lin et al., “Gap-Junction-Mediated Propagation and Amplification of Cell Injury,” Nat. Neurosci. 1:494-500 (1998), which are hereby incorporated by reference in their entirety. For ^86Rb^+ experiments the cultures were incubated for 10 minutes±ouabain (1 mM). The potassium analogue ^86Rb^+ was then added to each well plate for 15 minutes (1 μCi, Perkin Elmer). The reaction was stopped by placing the cells on ice and washed with ice-cold aCSF. The cells were lysed and ^86Rb^+ uptake quantified by liquid scintillation counting (Beckman Coulter). For Na^+—K^+-ATPase activity, astrocyte cultures were utilized as previously described, and enzyme activity was quantified using the malachite green reaction (Sigma) and analyzed using spectrophotometry. Anupama et al. “Comparison of Na—K ATPase Activity in Rat Brain Synaptosome Under Various Conditions,” Neurochem. Int. 33:283-286 (1998), which is hereby incorporated by reference in its entirety.

[12] = tested on: Otc^spf-ash mice; experiment: Sensory-motor phenotype score; type: in vivo, mouse; conditions: Otc^spf-ash mice after systemic NH4Cl load 7.5 mmol kg^−1; bumetanide 30 mg kg^−1 i.p.
Method: Mouse movement and seizure activity were omitted from this score, because it was desired that these manifestations be independently and more quantitatively represented. The score thus consisted of four elements: hyperacusis (0-2), imbalance (0-3), ataxia/tremor (0-3) and level of consciousness (0-3). A maximum score of 11 represents deep coma (no corneal reflex) whilst 0 represents normal wakefulness. Each animal was scored after the first 5 minutes and then every 15 minutes as they progressed through the stereotypical stages of ammonia neurotoxicity. […] Ataxia/tremor was scored using a gait test, where the mouse was encouraged to walk for a short distance. […] Consciousness was scored as either 0 for awake, 1 loss of scatter reflex, 2 loss of righting reflex (LORR), 3 loss of corneal reflex.

[13] = tested on: astrocytes; conditions: n = 52 cells, mean±SEM; for Astrocyte calcium transient Freq.: awake Otc^spf-ash mice, 100 μm below pial surface
From the text: Body temperature was maintained with a heating pad.
Two-Photon Laser Scanning Microscopy (2PLSM)—A Mai Tai laser (SpectraPhysics) attached to a confocal scanning system (Fluoview 300, Olympus) and an upright microscope (IX51W) was used. Briefly, volume changes and calcium activity were imaged in cortex 100 μm below the pial surface, as described previously, using a 60× (1.1 NA) and a 20× (0.95 NA) lens, respectively. For in vivo volumetry xyzt image series were collected (z-step 1.5 μm, every 5 minutes) with acquisition time<20 seconds and laser power<40 mW. For in vivo calcium imaging, dual channel (rhod-2 and eGFP) frames were collected at 0.2 or 2 Hz. A low sampling rate and <20 mW laser were used to avoid photo damage. […] Therefore, each animal was tested for optimal loading by performing whisker stimulation, to verify a physiological calcium response. Wang et al., “Astrocytic Ca^2+ Signalling Evoked by Sensory Stimulation In Vivo,” Nat. Neurosci. 9:816-823 (2006), which is hereby incorporated by reference in its entirety. A calcium transient was defined as an event where the relative ratio between the rhod-2 and eGFP signal intensities (ΔF/F0) was >2 standard deviations […] from baseline. Beginning and end were defined as ΔF/F0>0.5 π and <0.5 π respectively. Amplitude was taken as the peak ΔF/F0 in this interval. For in situ volumentric imaging acute cortical slices were loaded with texas red hydrazide (1.5 μM, a fixable sulforhodamine 101 derivative) in aCSF for 50 minutes. Volume and calcium recordings were analyzed using previously described custom-made software (MatLab Inc.).
Data in Table 2 is from analysis of 2PLSM xyt series, where calcium indicator rhod-2 was used to detect astrocyte calcium transients 100 μm below the pial surface. Data are shown as mean±SEM.

[14] = tested on: Otc^spf-ash mice; experiment: NH4+ and K+ ion-sensitive microelectrode (ISM) recordings from cortex of awake mice; conditions: mean±SEM
Method: Body temperature was maintained with a heating pad. For systemic drug treatment, a polyethylene intraperitoneal (i.p.) catheter was surgically implanted to deliver drugs accurately and with minimal manipulation. For cortical drug application artificial cerebrospinal fluid (aCSF) was perfused across the cortex of awake mice at a rate of 2 mL/minute, into a custom-made well with ˜200 μL volume, through tubing with ˜100 μL volume, meaning the entire volume bathing the brain was exchanged approximately every 9 seconds.
Electrophysiological Recordings—In vivo recordings were obtained from layer II somatosensory cortex. […] ISMs of K^+ and NH4^+ were pulled from double-barreled pipette glass (PB150-6, WPI) with a tip of 1-3 μm. The pipettes were silanized (coated) with dimethylsilane I (Fluka, Sigma) and filled with either K^+ ionophore I cocktail B (Fluka, selectivity coefficient −1.8 log(K^+/NH4^+)) or NH4+ ionophore I cocktail B (Fluka, −0.9 log(NH4^+/K^+)). […] Ion-sensitive microelectrode (ISM) signals were amplified (FD223a by WPI), externally filtered and digitized as above, and reference field potential traces were subtracted.
Ion Sensitive Microelectrode (ISM) Fabrication—Ion Sensitive Microelectrodes (ISMs) of K^+ and NH4^+ were pulled from double-barreled pipette glass (PB150-6, WPI) with a tip of 1-3 μm. The pipettes were silanized (coated) with dimethylsilane I (Fluka, Sigma). […] The K^+ ionophore has a selectivity coefficient relative to NH4^+ of −1.8 log (K^+/NH4^+), and the NH4^+ ionophore has a selectivity coefficient relative to K^+ of −0.9 log (NH4^+/K^+). […] The reference barrels were used to record the DC potentials and were filled with 0.15 M NaCl. In selected experiments, single barrel electrodes were also used in combination with single reference electrodes. K^+ and NH4^+ ISM traces were subtracted for interference by calculating the mV response to the increase of the other ion in calibration solutions. All ISMs were calibrated before and after each experiment. […] Calibration data were fitted to the Nikolsky equation to determine electrode slope and interference.

[15] = tested on: Otc^spf-ash mice; experiment: Survival after ammonia overdose (Cox regression); type: in vivo, mouse
Method: Where n≧10 for normally distributed data, the unpaired t test or ANOVA were used for independent samples, and paired t test for paired samples. Where n<10 non-parametric tests including Mann-Whitney U and Kruskall-Wallis were used for independent samples, and Wilcoxon signed ranks test for paired samples. Overdose survival was compared using Cox regression model (controlling for the confounding effect of mouse weight).
To test the validity of the present in situ model, awake animals were tested (FIG. 4A). […] To investigate whether this improvement of neuronal function translated into a clinically relevant improvement in disease phenotype, the phenotype measures outlined in FIGS. 1A-1I were employed.

[16] = during cortical KCl application (12.5 mM) ± bumetanide 5 μM
[17] = after washout of cortical NH4Cl (± bumetanide)
[18] = during cortical NH4Cl application (10 mM) ± bumetanide 5 μM
[19] = cortical NH4Cl (10 mM) ± bumetanide
[20] = systemic NH4Cl (7.5 mmol kg^−1) ± bumetanide
[21] = Otc^spf-ash mice, ammonia 7.5 mmol kg^−1 i.p.
[22] = cortical superfusion (NH4Cl 10 mM, BUM 5 μM)
[23] = intraperitoneal injection (NH4Cl 7.5 mmol kg^−1, BUM 30 mg kg^−1)

NKCC1 (Mus musculus, UniProt P55012), sequence (P55012 whole entry): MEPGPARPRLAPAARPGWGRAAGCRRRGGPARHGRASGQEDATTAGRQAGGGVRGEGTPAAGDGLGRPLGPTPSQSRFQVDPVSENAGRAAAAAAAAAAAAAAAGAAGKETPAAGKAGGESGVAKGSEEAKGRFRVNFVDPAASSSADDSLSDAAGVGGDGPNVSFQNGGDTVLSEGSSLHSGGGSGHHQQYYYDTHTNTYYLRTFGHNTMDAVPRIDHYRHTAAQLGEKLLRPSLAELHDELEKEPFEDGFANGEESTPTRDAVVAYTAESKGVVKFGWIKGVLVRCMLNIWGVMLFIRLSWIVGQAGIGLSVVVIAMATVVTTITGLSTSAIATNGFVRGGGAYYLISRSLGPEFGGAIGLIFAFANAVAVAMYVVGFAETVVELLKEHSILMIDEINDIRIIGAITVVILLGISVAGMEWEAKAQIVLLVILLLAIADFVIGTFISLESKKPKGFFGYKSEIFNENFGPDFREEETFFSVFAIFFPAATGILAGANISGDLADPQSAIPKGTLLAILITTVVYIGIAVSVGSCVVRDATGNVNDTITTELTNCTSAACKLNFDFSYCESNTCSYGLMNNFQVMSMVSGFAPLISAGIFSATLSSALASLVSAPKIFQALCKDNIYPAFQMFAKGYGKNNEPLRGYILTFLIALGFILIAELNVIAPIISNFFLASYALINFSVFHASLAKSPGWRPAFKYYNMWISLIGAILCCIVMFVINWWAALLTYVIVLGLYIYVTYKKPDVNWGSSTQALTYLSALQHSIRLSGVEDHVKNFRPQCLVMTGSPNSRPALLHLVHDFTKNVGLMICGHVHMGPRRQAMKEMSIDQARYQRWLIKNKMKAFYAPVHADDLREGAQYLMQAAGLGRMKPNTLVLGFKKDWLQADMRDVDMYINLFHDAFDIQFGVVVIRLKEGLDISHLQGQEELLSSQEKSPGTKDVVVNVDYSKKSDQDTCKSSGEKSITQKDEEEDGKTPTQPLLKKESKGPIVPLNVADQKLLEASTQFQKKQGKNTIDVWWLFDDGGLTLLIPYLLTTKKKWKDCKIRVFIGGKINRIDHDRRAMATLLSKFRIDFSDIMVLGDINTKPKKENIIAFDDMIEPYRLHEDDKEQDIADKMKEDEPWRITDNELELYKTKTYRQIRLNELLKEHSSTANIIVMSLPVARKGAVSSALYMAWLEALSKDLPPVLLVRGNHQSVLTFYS

Row | Structure (SMILES) | Paired-pulse ratio (PPR) [1, 16] | Paired-pulse ratio (PPR) after washout [1, 17] | Paired-pulse ratio (PPR) [1, 18] | ME frequency [6, 19] | ME frequency [6, 20] | Spontaneous mouse movement [7] | Brain GABA [8, 21] | Brain Glutamate [8, 21] | Brain Glutamine [8, 21] | Brain GABA ([8]; WT mice) | Brain Glutamate ([8]; WT mice) | Brain Glutamine ([8]; WT mice) | Sensory-motor phenotype score (out of 11) [12] | [NH4^+]o [14, 22] | [NH4^+]o [14, 23] | Δ[K^+]o [14, 23] | also measured
1 | [Cl-].[K+] [KCl] | 1.48±0.22 |  |  |  |  |  |  |  |  |  |  |  |  |  |  |  | Paired-pulse ratio (PPR) after washout ([1]; after washout of cortical KCl): 0.63±0.14
2 | N [NH4Cl] |  | 0.61±0.15 | 1.56±0.24 | 1.02±0.07 ME min^−1 | 2.66±0.14 ME min^−1 | 0.42±0.22 m min^−1 | 2.46 ± 0.13 μmol g^−1 wet weight | 13.24 ± 0.33 μmol g^−1 wet weight | 9.25 ± 0.34 μmol g^−1 wet weight | 2.19 ± 0.12 μmol g^−1 wet weight | 12.49 ± 0.15 μmol g^−1 wet weight | 8.69 ± 0.33 μmol g^−1 wet weight | 9.00±0.46 | 5.82 ± 0.18 mM | 4.83 ± 0.52 mM | 1.93 ± 0.19 mM | Depolarization of EGABA ([2]; ammonia 7 mM in perfusate, pyramidal neurons, ramp voltage 0 to −120 mV): +12.33±3.66 mV; Astrocyte swelling [3]: no significant astrocyte swelling; Transient astrocyte shrinkage [3]: 5.04±0.85%; Depolarizing effect on EGABA [4]: +11.14±1.22; Depolarizing effect on EGABA [5]: +1.00±1.07; Increase in [K^+]o [9]: 1.88 ± 0.13 mM; Increase in [NH4^+]o [9]: 3.67 ± 0.53 mM; Extracellular ammonia concentration in plasma [10]: 4.21 ± 0.59 mM; NKA activity with NH4Cl substituted for KCl ([11]; NH4Cl 15 mM, cell-free): able to maintain normal NKA activity; NKA-dependent (ouabain-sensitive) 86Rb^+ uptake ([11]; ammonia 0.5-10 mM, cultured astrocytes): dose-dependent reduction; Astrocyte calcium transient Freq. [13]: 9.03 ± 1.16 Hz cell^−1 × 10^−3; Astrocyte calcium transient Freq. ([13]; listed as ammonia): 9.03±1.16 Hz cell^−1 × 10^−3; Astrocyte calcium Cell-cell correlation ([13]; awake mice): 0.26 ± 0.08; Astrocyte calcium transient Amplitude (ΔF/F0) ([13]; awake mice): 0.47 ± 0.32; Astrocyte calcium transient Duration ([13]; awake mice): 21.51 ± 4.55 s; Astrocyte calcium Cell-cell correlation ([13]; awake mice, listed as ammonia): 0.26±0.08; Δ[K^+]o ([14]; intraperitoneal injection (NH4Cl 7.5 mmol kg^−1, BUM 30 mg kg^−1), listed as ammonia): 1.93 ± 0.19 mM
3 | CCCCNc1cc(C(=O)O)cc(S(N)(=O)=O)c1Oc1ccccc1 [bumetanide] | 0.92±0.18 | 0.59±0.17 | 0.88±0.15 | 0.10±0.02 ME min^−1 | 0.32±0.02 ME min^−1 | 3.17±0.46 m min^−1 | 2.39 ± 0.13 μmol g^−1 wet weight | 14.27 ± 0.23 μmol g^−1 wet weight | 8.70 ± 1.54 μmol g^−1 wet weight | 2.55 ± 0.05 μmol g^−1 wet weight | 14.38 ± 0.22 μmol g^−1 wet weight | 4.52 ± 0.18 μmol g^−1 wet weight | 6.00±0.72 | 0.52 ± 0.11 mM | 0.42 ± 0.16 mM | 0.0073 ± 0.015 mM | Effect on ammonia-induced depolarization of EGABA ([2]; bumetanide 5 μM pre-incubation): successfully prevented; Survival after ammonia overdose increased by a factor ([15]; NH4Cl overdose 10 mmol kg^−1, Otc^spf-ash mice): 3.87; Hazard rate ratio ([15]; NH4Cl overdose 10 mmol kg^−1, 95% confidence interval 0.08 to 0.87): 0.26
